For one test, the system named is VEGF UTRs. Nature of the test: luciferase reporter inhibition in B9 (VEGF 5' and 3' UTRs) versus B12 (control UTRs) stable cell lines. It counts as cell-based, human. Particulars: about 10^-1 nM to about 10^4 nM. As to the method: A monocistronic reporter construct (pLuc/vegf5′+3′UTR) is under the transcriptional control of the CMV promoter and contains the VEGF 5′ UTR driving the luciferase reporter upstream of the VEGF 3′UTR. Stable cell lines are generated by transfecting 293 cells with the pLuc/vegf5′+3′UTR construct. A stable cell line is cultured under hygromycin B selection to create clonal cell lines consistent with protocols well known in the art. After two weeks of selection, clonal cell lines are screened for luciferase activity. The luciferase activity of several clonal cell lines (hereafter “Clones”) are compared and normalized against total protein content. Clones are maintained under hygromycin B selection for more than three months with intermittent monitoring of luciferase activity. Clones are stable and maintain a high level of luciferase expression. Many Clones, for example, about twenty, may be compared to each other with respect to luciferase activity. […] Particular parameters for Clones are studied prior to selection for use in post-transcriptional, high-throughput screening (HTS). […]
Chemical libraries in excess of 150,000 compounds are screened by HTS with a Clone containing the monocistronic reporter construct, pLuc/vegf5′+3′UTR. […] Data is analyzed as a normal distribution, which is apparent from graphical and statistical analysis of skewness and kurtosis. […]

Another test deals with FGF-2 and IGF-1. Nature of the test: ELISA assays for expression of angiogenesis factors in HeLa cells. It counts as cell-based. The note with it: Homo sapiens, read-out: EC50 for inhibition of all these cytokines. As to the method:
Compounds that target multiple angiogenesis factors (including VEGF) for the treatment of cancers are also identifiable. Several targets are used for these purposes, including TNF-α, FGF-2, G-CSF, IGF-1, PDGF, and HIF-1α. ELISA assays analyze levels of expression of these factors using commercially available kits from R&D Systems (Minneapolis, Minn.). UTR-specific HTS identified compounds are tested for their ability to inhibit the expression of a subset of these proteins, including FGF-2 and IGF-1 in HeLa cells.

pEC50: −log10 of the molar value.

`COc1ccc(C[C@H](N)C(=O)N[C@H]2[C@@H](O)[C@H](n3cnc4c(N(C)C)ncnc43)O[C@@H]2CO)cc1` [puromycin]: the “difference in inhibition of luciferase expression between B9 and B12 cell lines” value in the test on VEGF UTRs is reported as “No difference”. Moreover, the pEC50 with FGF-2 and IGF-1 was 5.70 to 6.70.

The values are drawn from US9476870B2, “Methods and agents for screening for compounds capable of modulating gene expression” (PTC Therapeutics, Inc., priority 2003, dated 2016).
